Source: patent US9394328B2, “Crystalline dapagliflozin hydrate” (SANDOZ AG, priority 2011, dated 2016)

Protocol: The measurements were carried out with a Bruker D8 Advance powder X-ray diffractometer using Cu Kα radiation in the Bragg-Brentano reflection geometry. Generally, the 2θ values are accurate within an error of ±0.1-0.2°. The relative peak intensities can vary considerably for different samples of the same crystalline form because of different preferred orientations of the crystals. The samples were prepared without any special treatment other than the application of slight pressure to get a flat surface. Silicon single crystal sample holders of either 0.5 mm or 0.1 mm depth and 12 mm cavity diameter were used. The tube voltage and current were 40 kV and 40 mA, respectively. The X-ray diffractometer is equipped with a LynxEye detector. A variable divergence slight was used with a 3° window. The step size was 0.02° 20 with a step time of 37 seconds. The samples were rotated at 0.5 rps during the measurement.
Thermogravimetry coupled with Fourier Transform Infrared Spectroscopy (TG-FTIR): TG-FTIR was performed on a Netzsch Thermo-Microbalance TG 209, which is coupled to a Bruker FT-IR Spectrometer Vector 22. The measurements were carried out with aluminum crucibles with a micro pinhole under a nitrogen atmosphere and at a heating rate of 10° C./min over the range 25-250° C.
145 mg of crystalline hydrate form A according to example 4 is stored under a relative humidity of 60% (in an open container) for two weeks. Then the stored sample is investigated by PXRD and TG-FTIR.

- TG-FTIR mass loss attributable to loss of water (after storage at relative humidity of 60% for two weeks): about 9%
- Water content in equilibrium with a water activity of about 0.6 (concluded from TG-FTIR mass loss): about 2 mol water per mol dapagliflozin
- Crystalline form after storage (PXRD) (stored under a relative humidity of 60% (open container) for two weeks): form A is retained
SMILES: CCOc1ccc(Cc2cc([C@@H]3O[C@H](CO)[C@@H](O)[C@H](O)[C@H]3O)ccc2Cl)cc1 [form A, dapagliflozin]
